Where a SMILES comes first, the peptide text is derived from it.
Assays:
[1] = molecular target: Vasopressin V1a receptor (Homo sapiens, UniProt P37288)
[2] = molecular target: T1, Adenosine receptor A3 (Homo sapiens, UniProt P0DMS8)
T1 sequence (P0DMS8 whole entry): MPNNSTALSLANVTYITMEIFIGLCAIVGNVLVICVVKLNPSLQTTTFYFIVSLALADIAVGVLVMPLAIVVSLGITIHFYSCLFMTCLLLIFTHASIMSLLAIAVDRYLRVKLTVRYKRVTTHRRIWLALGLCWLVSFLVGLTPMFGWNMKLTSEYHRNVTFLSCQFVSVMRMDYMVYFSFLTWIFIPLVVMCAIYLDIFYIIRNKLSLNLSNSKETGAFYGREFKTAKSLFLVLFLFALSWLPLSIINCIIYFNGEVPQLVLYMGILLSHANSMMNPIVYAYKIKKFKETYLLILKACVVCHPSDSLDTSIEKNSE

[3] = molecular target: T2, B2 bradykinin receptor (Homo sapiens, UniProt P30411)
T2 sequence (P30411 whole entry): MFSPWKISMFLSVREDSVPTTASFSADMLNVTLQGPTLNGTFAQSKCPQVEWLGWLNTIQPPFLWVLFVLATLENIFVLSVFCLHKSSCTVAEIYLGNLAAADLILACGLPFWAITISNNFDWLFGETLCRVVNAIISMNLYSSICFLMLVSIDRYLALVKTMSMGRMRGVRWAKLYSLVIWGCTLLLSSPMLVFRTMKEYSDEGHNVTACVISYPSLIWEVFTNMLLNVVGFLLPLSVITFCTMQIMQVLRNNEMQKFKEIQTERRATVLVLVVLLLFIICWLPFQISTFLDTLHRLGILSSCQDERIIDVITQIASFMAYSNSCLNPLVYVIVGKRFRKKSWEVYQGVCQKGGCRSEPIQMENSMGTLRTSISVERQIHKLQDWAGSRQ

[4] = molecular target: T3, Alpha-1A adrenergic receptor (Homo sapiens, UniProt P35348); type: functional, cell-based
T3 sequence (P35348 whole entry): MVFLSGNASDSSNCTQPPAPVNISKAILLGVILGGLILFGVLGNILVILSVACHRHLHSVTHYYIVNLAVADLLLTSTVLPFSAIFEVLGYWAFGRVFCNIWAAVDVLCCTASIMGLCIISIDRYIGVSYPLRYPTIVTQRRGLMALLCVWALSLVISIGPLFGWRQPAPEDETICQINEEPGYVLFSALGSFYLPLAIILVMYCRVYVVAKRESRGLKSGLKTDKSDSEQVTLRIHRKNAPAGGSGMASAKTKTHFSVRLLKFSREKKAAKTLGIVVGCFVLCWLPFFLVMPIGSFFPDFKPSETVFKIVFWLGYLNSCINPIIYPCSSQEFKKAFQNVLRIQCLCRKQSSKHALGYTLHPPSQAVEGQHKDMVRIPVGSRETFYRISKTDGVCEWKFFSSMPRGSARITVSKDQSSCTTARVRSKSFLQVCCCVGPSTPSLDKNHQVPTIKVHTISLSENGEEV

[5] = molecular target: Glutamate receptor ionotropic, NMDA 1 (Rattus norvegicus, UniProt P35439)
[6] = molecular target: T4, Alpha-2C adrenergic receptor (Homo sapiens, UniProt P18825); type: functional
T4 sequence (P18825 whole entry): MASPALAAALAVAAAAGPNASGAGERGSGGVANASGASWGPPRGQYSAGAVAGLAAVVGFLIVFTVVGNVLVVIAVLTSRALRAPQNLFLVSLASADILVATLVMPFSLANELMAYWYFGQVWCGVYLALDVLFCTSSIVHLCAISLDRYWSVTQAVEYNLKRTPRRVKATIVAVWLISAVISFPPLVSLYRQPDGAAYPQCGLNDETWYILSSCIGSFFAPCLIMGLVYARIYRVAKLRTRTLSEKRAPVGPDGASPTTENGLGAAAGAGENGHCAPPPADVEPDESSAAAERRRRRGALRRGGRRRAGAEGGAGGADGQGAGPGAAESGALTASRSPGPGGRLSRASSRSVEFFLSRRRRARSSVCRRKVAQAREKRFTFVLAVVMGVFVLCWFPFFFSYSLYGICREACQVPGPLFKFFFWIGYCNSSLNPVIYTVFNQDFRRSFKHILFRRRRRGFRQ

[7] = molecular target: cGMP-inhibited 3',5'-cyclic phosphodiesterase 3A (Homo sapiens, UniProt Q14432); type: functional
cGMP-inhibited 3',5'-cyclic phosphodiesterase 3A, sequence (Q14432 whole entry): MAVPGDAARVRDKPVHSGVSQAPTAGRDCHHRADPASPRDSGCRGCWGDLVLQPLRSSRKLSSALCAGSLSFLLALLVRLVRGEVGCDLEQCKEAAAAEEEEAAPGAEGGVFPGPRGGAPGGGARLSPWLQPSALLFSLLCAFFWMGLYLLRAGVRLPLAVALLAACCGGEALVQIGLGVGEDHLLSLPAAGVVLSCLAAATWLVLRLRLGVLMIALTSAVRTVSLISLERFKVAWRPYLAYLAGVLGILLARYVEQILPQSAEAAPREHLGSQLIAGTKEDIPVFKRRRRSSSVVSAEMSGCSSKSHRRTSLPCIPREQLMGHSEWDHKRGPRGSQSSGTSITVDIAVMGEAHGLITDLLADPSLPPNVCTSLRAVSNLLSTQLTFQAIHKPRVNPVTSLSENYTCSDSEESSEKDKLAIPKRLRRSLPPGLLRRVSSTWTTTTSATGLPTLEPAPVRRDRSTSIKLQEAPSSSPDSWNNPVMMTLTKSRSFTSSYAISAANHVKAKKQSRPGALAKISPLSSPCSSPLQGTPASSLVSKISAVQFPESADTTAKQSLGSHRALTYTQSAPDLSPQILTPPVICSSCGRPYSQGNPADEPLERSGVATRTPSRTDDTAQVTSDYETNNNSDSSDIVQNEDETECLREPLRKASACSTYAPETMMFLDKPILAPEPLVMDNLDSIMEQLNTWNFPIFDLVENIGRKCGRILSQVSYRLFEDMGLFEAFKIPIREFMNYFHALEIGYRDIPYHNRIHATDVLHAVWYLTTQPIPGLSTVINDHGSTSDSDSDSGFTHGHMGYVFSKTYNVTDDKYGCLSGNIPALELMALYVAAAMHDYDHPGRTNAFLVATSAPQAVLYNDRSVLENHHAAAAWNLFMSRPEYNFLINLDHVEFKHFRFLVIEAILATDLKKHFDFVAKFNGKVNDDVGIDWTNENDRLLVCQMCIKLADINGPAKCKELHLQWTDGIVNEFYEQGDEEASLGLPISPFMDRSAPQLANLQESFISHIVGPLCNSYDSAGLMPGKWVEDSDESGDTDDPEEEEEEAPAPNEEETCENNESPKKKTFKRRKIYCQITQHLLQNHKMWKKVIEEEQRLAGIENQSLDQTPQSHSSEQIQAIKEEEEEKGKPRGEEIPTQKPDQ

[8] = molecular target: T5, Endothelin-1 receptor (Homo sapiens, UniProt P25101)
T5 sequence (P25101 whole entry): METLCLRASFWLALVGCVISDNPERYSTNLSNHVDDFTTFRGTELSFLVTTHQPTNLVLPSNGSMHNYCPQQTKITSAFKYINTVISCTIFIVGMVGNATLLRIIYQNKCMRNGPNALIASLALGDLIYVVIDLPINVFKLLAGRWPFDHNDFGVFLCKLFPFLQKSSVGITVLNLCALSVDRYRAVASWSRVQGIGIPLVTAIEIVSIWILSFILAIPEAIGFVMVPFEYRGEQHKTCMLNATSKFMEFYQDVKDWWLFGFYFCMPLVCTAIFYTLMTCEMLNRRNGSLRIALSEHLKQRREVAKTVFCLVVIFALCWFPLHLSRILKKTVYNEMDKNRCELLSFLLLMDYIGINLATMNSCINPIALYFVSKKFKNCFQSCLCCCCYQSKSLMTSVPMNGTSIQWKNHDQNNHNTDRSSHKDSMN

[9] = molecular target: Histamine H2 receptor (Homo sapiens, UniProt P25021); type: functional, cell-based
Histamine H2 receptor, sequence (P25021 whole entry): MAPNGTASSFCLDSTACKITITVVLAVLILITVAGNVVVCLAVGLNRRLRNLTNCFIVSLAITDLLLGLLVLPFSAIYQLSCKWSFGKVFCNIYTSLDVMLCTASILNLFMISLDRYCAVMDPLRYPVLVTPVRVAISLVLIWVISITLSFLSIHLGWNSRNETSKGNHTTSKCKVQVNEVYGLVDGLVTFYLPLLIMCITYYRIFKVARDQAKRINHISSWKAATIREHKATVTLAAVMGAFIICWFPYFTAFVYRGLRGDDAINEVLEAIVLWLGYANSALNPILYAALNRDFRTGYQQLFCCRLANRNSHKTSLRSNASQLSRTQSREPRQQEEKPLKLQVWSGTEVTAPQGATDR

[10] = molecular target: T6, 5-hydroxytryptamine receptor 2C (Homo sapiens, UniProt P28335)
T6 sequence (P28335 whole entry): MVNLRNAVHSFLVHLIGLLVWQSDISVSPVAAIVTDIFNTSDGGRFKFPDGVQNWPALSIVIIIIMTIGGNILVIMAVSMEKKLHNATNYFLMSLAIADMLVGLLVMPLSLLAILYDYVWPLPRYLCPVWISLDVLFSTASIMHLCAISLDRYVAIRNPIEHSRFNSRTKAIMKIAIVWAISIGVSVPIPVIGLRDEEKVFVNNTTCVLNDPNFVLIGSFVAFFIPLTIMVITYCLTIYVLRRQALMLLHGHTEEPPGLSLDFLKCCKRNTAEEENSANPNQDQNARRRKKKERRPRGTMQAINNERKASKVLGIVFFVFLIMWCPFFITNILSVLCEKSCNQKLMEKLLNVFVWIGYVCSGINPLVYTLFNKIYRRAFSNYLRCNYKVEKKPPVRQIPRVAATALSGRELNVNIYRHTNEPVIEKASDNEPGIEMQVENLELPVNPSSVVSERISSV

[11] = molecular target: Muscarinic acetylcholine receptor M3 (Homo sapiens, UniProt P20309)
Muscarinic acetylcholine receptor M3, sequence (P20309 whole entry): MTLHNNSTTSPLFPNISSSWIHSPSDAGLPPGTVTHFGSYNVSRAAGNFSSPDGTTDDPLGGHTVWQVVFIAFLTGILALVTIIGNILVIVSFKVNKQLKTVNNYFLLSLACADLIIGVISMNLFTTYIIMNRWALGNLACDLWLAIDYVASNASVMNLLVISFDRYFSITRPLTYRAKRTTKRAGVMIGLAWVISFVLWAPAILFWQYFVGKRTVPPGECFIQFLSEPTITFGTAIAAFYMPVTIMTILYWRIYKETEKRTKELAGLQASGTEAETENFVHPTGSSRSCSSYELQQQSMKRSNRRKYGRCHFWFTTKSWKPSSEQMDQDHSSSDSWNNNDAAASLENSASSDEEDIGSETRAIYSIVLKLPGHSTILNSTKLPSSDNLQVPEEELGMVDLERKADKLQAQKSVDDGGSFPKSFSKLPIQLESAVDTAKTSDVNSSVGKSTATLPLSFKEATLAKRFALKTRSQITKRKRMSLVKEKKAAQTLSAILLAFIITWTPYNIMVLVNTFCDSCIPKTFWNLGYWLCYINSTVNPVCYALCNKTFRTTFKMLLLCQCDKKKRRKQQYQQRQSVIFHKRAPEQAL
Note: assay procedure not described here.

Vasopressin V1a receptor, sequence (P37288 whole entry): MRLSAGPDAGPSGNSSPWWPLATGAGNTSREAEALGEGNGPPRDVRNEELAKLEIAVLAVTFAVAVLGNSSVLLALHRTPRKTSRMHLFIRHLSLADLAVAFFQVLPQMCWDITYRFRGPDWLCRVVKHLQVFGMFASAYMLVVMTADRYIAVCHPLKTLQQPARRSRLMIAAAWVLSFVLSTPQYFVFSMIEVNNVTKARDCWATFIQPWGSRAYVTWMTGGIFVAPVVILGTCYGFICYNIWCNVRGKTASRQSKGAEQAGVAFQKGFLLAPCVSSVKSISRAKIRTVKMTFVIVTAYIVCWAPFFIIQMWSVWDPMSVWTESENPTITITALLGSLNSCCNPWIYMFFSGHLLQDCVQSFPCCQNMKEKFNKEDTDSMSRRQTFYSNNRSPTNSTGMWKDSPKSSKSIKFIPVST

COc1cc(N)cn[n+]1-c1ccccc1 [AMEZINIUM METILSULFATE]
AC50 [1]: > 30 µM
AC50 [2]: > 30 µM
AC50 [3]: > 30 µM
AC50 [4]: 25 µM
AC50 [5]: > 30 µM
AC50 [6]: > 30 µM
AC50 [7]: > 30 µM
AC50 [8]: > 30 µM
AC50 [9]: > 30 µM
AC50 [10]: > 30 µM
AC50 [11]: > 30 µM

Cc1ccc(-c2ncc(Cl)cc2-c2ccc(S(C)(=O)=O)cc2)cn1 [ETORICOXIB]
AC50 [1]: > 30 µM
AC50 [2]: > 10 µM
AC50 [3]: > 30 µM
AC50 [4]: > 30 µM
AC50 [5]: > 10 µM
AC50 [6]: > 10 µM
AC50 [7]: > 10 µM
AC50 [8]: > 30 µM
AC50 [9]: > 10 µM
AC50 [10]: > 10 µM
AC50 [11]: > 10 µM

C[C@H](N)C(=O)N[C@@H](CCC(N)=O)C(=O)O [ALANYL GLUTAMINE] (H-Ala-Gln-OH)
AC50 [1]: > 30 µM
AC50 [2]: > 30 µM
AC50 [3]: > 30 µM
AC50 [4]: > 30 µM
AC50 [5]: > 30 µM
AC50 [6]: > 30 µM
AC50 [7]: > 30 µM
AC50 [8]: > 30 µM
AC50 [9]: > 30 µM
AC50 [10]: > 30 µM
AC50 [11]: > 30 µM

O=C(O)c1ccc2nc(-c3cc(Cl)cc(Cl)c3)oc2c1
AC50 [1]: > 30 µM
AC50 [2]: > 30 µM
AC50 [3]: > 30 µM
AC50 [4]: > 30 µM
AC50 [5]: > 30 µM
AC50 [6]: > 30 µM
AC50 [7]: 24 µM
AC50 [8]: > 30 µM
AC50 [9]: > 30 µM
AC50 [10]: > 30 µM
AC50 [11]: > 30 µM

CS(=O)(=O)NC(=O)CCC/C=C\C[C@H]1C(=O)C[C@@H](O)[C@@H]1/C=C/[C@@H](O)COc1ccccc1 [SULPROSTONE]
AC50 [1]: > 30 µM
AC50 [2]: > 30 µM
AC50 [3]: > 30 µM
AC50 [4]: > 30 µM
AC50 [5]: > 30 µM
AC50 [6]: > 30 µM
AC50 [7]: > 30 µM
AC50 [8]: > 30 µM
AC50 [9]: > 30 µM
AC50 [10]: > 30 µM
AC50 [11]: > 30 µM

CCCCCCCC(=O)CC[C@@H]1[C@@H](C/C=C\CCCC(=O)O)[C@@H](O)C[C@H]1O [UNOPROSTONE]
AC50 [1]: > 30 µM
AC50 [2]: > 30 µM
AC50 [3]: > 30 µM
AC50 [4]: > 30 µM
AC50 [5]: > 30 µM
AC50 [6]: > 30 µM
AC50 [7]: > 30 µM
AC50 [8]: > 30 µM
AC50 [9]: > 30 µM
AC50 [10]: > 30 µM
AC50 [11]: > 30 µM

CCN(CC)C(C)C(=O)c1ccccc1 (stereo not drawn) [DIETHYLPROPION]
AC50 [1]: > 30 µM
AC50 [2]: > 30 µM
AC50 [3]: > 30 µM
AC50 [4]: > 30 µM
AC50 [5]: > 10 µM
AC50 [6]: > 10 µM
AC50 [7]: > 30 µM
AC50 [8]: > 30 µM
AC50 [9]: > 10 µM
AC50 [10]: > 30 µM
AC50 [11]: > 30 µM

Oc1cc(O)c2c(c1)O[C@H](c1ccc(O)c(O)c1)[C@@H](O)C2 [CIANIDANOL]
AC50 [1]: > 30 µM
AC50 [2]: 22.2 µM
AC50 [3]: > 30 µM
AC50 [4]: > 30 µM
AC50 [5]: > 10 µM
AC50 [6]: > 10 µM
AC50 [7]: > 30 µM
AC50 [8]: > 30 µM
AC50 [9]: > 10 µM
AC50 [10]: > 30 µM
AC50 [11]: > 30 µM

Source: ChEMBL document CHEMBL5291721, “A preclinical secondary pharmacology resource illuminates target-adverse drug reaction associations of marketed drugs” (Nat Commun, 2023)
